How the values were obtained:
TNFa-6His = TNFa-6His (Homo sapiens, UniProt P01375); experiment: MST binding to TNFa-6his; settings: Table 8, NTA labeled TNFa-6His (100 nM), read-out: KD (score), Kd of TNFalpha binding
Excerpt: MST was measure analogously to example 1 using TNFa-6his.

[1] = target: T1, soluble ectodomain of sortilin-6his (Homo sapiens, UniProt Q99523, V650M); experiment: MST binding to soluble ectodomain of sortilin-6his; settings: Table 4; small molecule bifunctional compounds; MST; read-out: KD score, binding to sortilin (Kd)
T1 construct: the soluble ectodomain of sortilin-6his is measured by microscale thermophoresis (MST)

HEK293/sortilin cells = experiment: Lysosomal sorting and degradation of NA650 (microscopy, blotted lysates, leupeptin); format: cell-based; settings: 24 h incubation, NA650 100 nM, compound 300 nM
Experimental: Cellular uptake of target NA650 was analyzed with fluorescence microscopy. For this assay, coverslips in 4 well plates were coated with poly-L lysine prior to seeding of HEK293/sortilin cells (25K cells/coverslip) in culture media (as described in Example 3)) and incubated overnight in cell incubator (37° C., humidified, 5% CO2). The culture media was replaced with assay media (as described in Example 3) containing NA650 (Invitrogen) (500 nM) (Thermo Fischer), a compound according to SEQ ID NO.: 147 (2 μM) and AF38469 (100 μM, MedChemExpress). The cells were incubated in a cell incubator for 4 hours before washing in dPBS (Bionordika) followed by fixation with dPBS+4% PFA (Sigma Aldrich) for 15 minutes. […] The fluorescent signal was analyzed using a laser scanning confocal microscope (LSM-800). […]
Culture medium was replaced with assay medium (DMEM (Lonza), 10% fetal bovine serum (Sigma Aldrich), 1% penicillin-streptomycin (Sigma Aldrich), 1% GlutaMAX (Gibco)) with or without NA650 (Invitrogen) (100 nM) (Thermo Fischer), peptidic bifunctional compound (300 nM) and leupeptin (80 μM) (Sigma Aldrich). […] Proteins were blotted onto a nitrocellulose membrane (Thermo Fisher), and the DyLight650 signal was detected using an iBright 1500 (Thermo Fisher). […]

[2] = test system: HEK293 cells expressing full length sortilin receptor; experiment: Cellular uptake of NA650 in HEK293/sortilin cells; format: cell-based; settings: Table 6; NA650 (100 nM), 3 h, biotin warhead compounds
Experimental: Cellular uptake of NA650 was investigated in HEK293 cells expressing full length sortilin receptor (Petersen et. al.). Cells were seeded in poly-L-lysine coated 96-well plates (Perkin Elmer) (40K/well) in 50 μL culture medium (DMEM (Lonza)+10% FBS (SigmaAldrich)+1% penicillin-streptomycin (SigmaAldrich)+1% GlutaMAX (Gibco)+100 μg/mL Zeocin (Invitrogen)) and incubated overnight in cell incubator (37° C., humidified, 5% CO2).
Culture medium was replaced with assay medium (DMEM (Lonza)+10% fetal bovine serum (SigmaAldrich)+1% penicillin-streptomycin (SigmaAldrich)+1% GlutaMAX (Gibco)) containing NA650 (Invitrogen) (100 nM) (Thermo Fischer) and peptidic bifunctional compounds (9.8 nM to 10 μM). Cells were incubated for 3 h in cell incubator before they were washed in dPBS (Bionordika). The DyLight650 signal in the cell layer was detected using a fluorescence plate reader (BMG Labtech Clariostar).
Cellular uptake of NA650 was investigated in HEK293 cells expressing full length sortilin receptor using a methodology analogous to example 3.

[3] = target: T2, Streptavidin-d2 and Sortilin-6His (UniProt P22629+Q99523, V650M); experiment: TR-FRET ternary complex formation streptavidin / small molecule bifunctional compound / sortilin; format: binding; settings: Table 5; 5 μM-0.6 pM, […] incubation
T2 construct: ternary complex formation composed of streptavidin, bifunctional compound and sortilin-6his

Sequence of TNFa-6His (P01375 77-233 limits assumed): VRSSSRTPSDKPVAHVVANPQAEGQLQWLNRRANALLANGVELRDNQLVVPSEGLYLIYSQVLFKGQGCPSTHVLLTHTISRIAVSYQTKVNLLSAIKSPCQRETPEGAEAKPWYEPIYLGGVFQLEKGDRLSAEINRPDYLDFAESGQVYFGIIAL
T1 sequence (Q99523 with tags, fused parts or gaps V650M): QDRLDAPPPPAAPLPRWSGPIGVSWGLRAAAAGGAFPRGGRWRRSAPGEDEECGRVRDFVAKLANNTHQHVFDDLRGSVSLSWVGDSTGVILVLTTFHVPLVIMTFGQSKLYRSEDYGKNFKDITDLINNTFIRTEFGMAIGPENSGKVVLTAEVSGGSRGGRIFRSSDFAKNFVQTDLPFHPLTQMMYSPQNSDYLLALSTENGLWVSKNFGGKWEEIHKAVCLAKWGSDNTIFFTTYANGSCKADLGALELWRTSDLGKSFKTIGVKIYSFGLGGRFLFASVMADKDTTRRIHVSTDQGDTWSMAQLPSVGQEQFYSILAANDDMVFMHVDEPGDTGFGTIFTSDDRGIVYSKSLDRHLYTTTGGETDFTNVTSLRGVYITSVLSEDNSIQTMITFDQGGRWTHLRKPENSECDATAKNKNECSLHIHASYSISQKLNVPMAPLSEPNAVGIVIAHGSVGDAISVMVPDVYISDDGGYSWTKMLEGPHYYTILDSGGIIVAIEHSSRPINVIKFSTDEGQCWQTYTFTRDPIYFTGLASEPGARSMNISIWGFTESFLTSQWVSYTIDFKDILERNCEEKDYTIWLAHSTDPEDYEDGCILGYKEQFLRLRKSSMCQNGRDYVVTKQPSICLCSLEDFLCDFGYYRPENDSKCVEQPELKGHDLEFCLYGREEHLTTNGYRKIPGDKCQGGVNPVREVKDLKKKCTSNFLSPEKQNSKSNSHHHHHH

| Structure (SMILES) | Kd (TNFa-6His) | Kd [1] | NA650 band in lysate (HEK293/sortilin cells) | AUC score, target internalization [2] | AUC score, ternary complex formation [3] |
| --- | --- | --- | --- | --- | --- |
| CC(C)(C)CCC(NC(=O)c1ccc(Oc2cccc(OCCOCCOCCOCCOCCOCCNC(=O)CCCC[C@@H]3SC[C@@H]4NC(=O)N[C@@H]43)c2)nc1)C(=O)O (some centres unmarked) [B025] | – | – | visible in cells incubated with B025 alone | – | – |
| CC(C)(C)CC[C@H](NC(=O)c1ccc(Oc2cccc(OCCOCCOCCOCCOCCOCCOCCOCCNC(=O)CCCC[C@@H]3SC[C@@H]4NC(=O)N[C@@H]43)c2)nc1)C(=O)O [BF017, (2S)-2-[[6-[3-[2-[2-[2-[2-[2-[2-[2-[2-[5-[(3aS,4S,6aR)-2-oxo-1,3,3a,4,6,6a-hexahydrothieno[3,4-d]imidazol-4-yl]pentanoylamino]ethoxy]ethoxy]ethoxy]ethoxy]ethoxy]ethoxy]ethoxy]ethoxy]phenoxy]pyridine-3-carbonyl]amino]-5,5-dimethyl-hexanoic acid] | – | 1 to 10 nM | – | ++ (AUC > 100) | + (AUC < 25.000) |
| CC(C)(C)CC[C@H](NC(=O)c1ccc(Oc2cccc3c(C(=O)NCCCNC(=O)CCOCCOCCOCCOCCNC(=O)CCCC[C@@H]4SC[C@@H]5NC(=O)N[C@@H]54)cccc23)nc1)C(=O)O [BF020, (2S)-2-[[6-[[5-[3-[3-[2-[2-[2-[2-[5-[(3aS,4S,6aR)-2-oxo-1,3,3a,4,6,6a-hexahydrothieno[3,4-d]imidazol-4-yl]pentanoylamino]ethoxy]ethoxy]ethoxy]ethoxy]propanoylamino]propylcarbamoyl]-1-naphthyl]oxy]pyridine-3-carbonyl]amino]-5,5-dimethyl-hexanoic acid] | – | 10 to 250 nM | – | ++ (AUC > 100) | ++ (AUC > 25.000) |
| CC(C)(C)CC[C@H](NC(=O)c1ccc(Oc2cccc(OCCOCCOCCOCCOCCOCCNC(=O)CCCC[C@@H]3SC[C@@H]4NC(=O)N[C@@H]43)c2)nc1)C(=O)O (stereo in doubt) [BF025] | – | 10 to 250 nM | – | + (AUC < 100) | + (AUC < 25.000) |
| CC(C)(C)CC[C@H](NC(=O)c1ccc(Oc2cccc(OCCOCCOCCOCCOCCOCCOCCNC(=O)CCCC[C@@H]3SC[C@@H]4NC(=O)N[C@@H]43)c2)nc1)C(=O)O [BF019, (2S)-2-[[6-[3-[2-[2-[2-[2-[2-[2-[2-[5-[(3aS,4S,6aR)-2-oxo-1,3,3a,4,6,6a-hexahydrothieno[3,4-d]imidazol-4-yl]pentanoyl-amino]ethoxy]ethoxy]ethoxy]ethoxy]ethoxy]ethoxy]ethoxy]phenoxy]pyridine-3-carbonyl]amino]-5,5-dimethyl-hexanoic acid] | – | 1 to 10 nM | – | + (AUC < 100) | + (AUC < 25.000) |
| CC(C)(C)CC[C@H](NC(=O)c1ccc(Oc2cccc(C(=O)NCCOCCOCCOCCOCCOCCOCCNC(=O)CCCC[C@@H]3SC[C@@H]4NC(=O)N[C@@H]43)c2)nc1)C(=O)O [BF023, (2S)-2-[[6-[3-[2-[2-[2-[2-[2-[2-[2-[5-[(3aS,4S,6aR)-2-oxo-1,3,3a,4,6,6a-hexahydrothieno[3,4-d]imidazol-4-yl]pentanoylamino]ethoxy]ethoxy]ethoxy]ethoxy]ethoxy]ethoxy]ethylcarbamoyl]phenoxy]pyridine-3-carbonyl]amino]-5,5-dimethyl-hexanoic acid] | – | 10 to 250 nM | – | + (AUC < 100) | + (AUC < 25.000) |

Now from value to molecule, other results behind:

| Kd (TNFa-6His) | Structure (SMILES) | Kd [1] | NA650 band in lysate (HEK293/sortilin cells) | AUC score, target internalization [2] | AUC score, ternary complex formation [3] |
| --- | --- | --- | --- | --- | --- |
| < 2000 nM | Cc1nc2cc(F)c(-c3cnc(OCCCCCn4cc(COCCOCCOCCOCCNC(=O)c5ccc(Oc6cccc(OCC(=O)N[C@@H](CCC(C)(C)C)C(=O)O)c6)nc5)nn4)nc3)nc2c(N[C@H](C)c2cc(C#N)ccc2F)c1Cl [BF076] | 10 to 250 nM | – | – | – |
| > 2000 nM | C[C@@H]1CN(c2ncc(-c3ccc4c(n3)N(Cc3cccnc3C#N)C(C)(C)C4=O)cn2)CCN1C(=O)CNC(=O)COCCOCCOCCOCCOc1cccc(Oc2ccc(C(=O)N[C@@H](CCC(C)(C)C)C(=O)O)cn2)c1 [BF082] | 1 to 10 nM | – | – | – |
| < 2000 nM | Cc1cc(-c2ccc(OCC(=O)NCCOCCOCc3cn(CCCCCOc4ncc(-c5nc6c(N[C@@H](C)c7cc(C#N)ccc7F)c(Cl)c(C)nc6cc5F)cn4)nn3)cc2)cc(NC(=O)c2ccc(C(F)(F)F)cc2C(=O)O)n1 [BF080] | < 1 nM | – | – | – |
| < 2000 nM | C[C@@H]1CN(c2ncc(-c3ccc4c(n3)N(Cc3cccnc3C#N)C(C)(C)C4=O)cn2)CCN1C(=O)CNC(=O)CCCCCOCCOCCNC(=O)c1cccc(Oc2ccc(C(=O)N[C@@H](CCC(C)(C)C)C(=O)O)cn2)c1 [BF0100] | – | – | – | – |
| < 2000 nM | Cc1nc2cc(F)c(-c3cnc(OCCOCCOCCOCCOCCOCCOCCNC(=O)c4ccc(Oc5cccc(OCC(=O)N[C@@H](CCC(C)(C)C)C(=O)O)c5)nc4)nc3)nc2c(N[C@H](C)c2cc(C#N)ccc2F)c1Cl [BF079] | – | – | – | – |
| < 2000 nM | C[C@@H]1CN(c2ncc(-c3ccc4c(n3)N(Cc3cccnc3C#N)C(C)(C)C4=O)cn2)CCN1C(=O)CNC(=O)CCCCCCCCCCn1cc(-c2cccc(Oc3ccc(C(=O)N[C@@H](CCC(C)(C)C)C(=O)O)cn3)c2)nn1 [BF081, (2S)-2-[[6-[3-[1-[11-[[2-[(2R)-4-[5-[1-[(2-cyano-3-pyridyl)methyl]-2,2-dimethyl-3-oxo-pyrrolo[2,3-b]pyridin-6-yl]pyrimidin-2-yl]-2-methyl-piperazin-1-yl]-2-oxo-ethyl]amino]-11-oxo-undecyl]triazol-4-yl]phenoxy]pyridine-3-carbonyl]amino]-5,5-dimethyl-hexanoic acid] | 1 to 10 nM | – | – | – |
